The source of these data is PubChem BioAssay AID2060500 (Molecular Pharmacology Branch, DTP, NCI, 2025).

The subject of this test is 596521-263-R-J1-PDC complex spheroids, viability % of control. Kind of test: Anticancer human tumor 596521-263-R-J1-PDC patient-derived soft tissue sarcoma cell line growth inhibition [GQUAD]. To be noted: for viability, T/C: stronger effect = lower value. The text has this:
DNA G-quadruplex Stabilizer Agents in Combinations in Complex Spheroids
A high-throughput screen of multi-cell type tumor spheroids was designed to identify active combinations of DNA G-quadruplex stabilizer agents and targeted small molecules. Complex spheroids include a stromal component modeled by human endothelial cells (HUVEC) and fibroblasts modeled by human mesenchymal stem cells (MSCs). The concentration ranges selected for each drug and investigational agent were based upon clinically achievable concentrations if the clinical Cmax of the agent was known.
Compounds. The drugs and investigational agents: pidnarulex (CX-5461; NSC782164), APTO-253 (NSC789042), BRACO-19 (NSC847499), peposertib (NSC802822), ceralasertib (NSC780249), elimusertib (NSC800525), camonsertib (NSC841442), AZD-1390 (NSC803789), olaparib (NSC753686), talazoparib (NSC767125), ART-558 (NSC835418), sotorasib (NSC818433), MRTX-1133 (NSC836407), SN-38 (NSC673596), topotecan (NSC609699), etoposide (NSC141540), doxorubicin (NSC123127), gemcitabine (NSC613327), 5-fluorouracil (NSC19893), paclitaxel (NSC125973), vemurafenib (NSC761431), panobinostat (NSC761190), R-306465 (JNJ-16241199; NSC773264), adavosertib (NSC754352), TP-3654 (NSC805149), carboplatin (NSC241240), KSQ-4279 (NSC840948), and staurosporine (NSC755774) were obtained from the National Cancer Institute (NCI) Developmental Therapeutics Program Chemical Repository (34). The FDA-approved anticancer drug set is available from the NCI Developmental Therapeutics Program. […] The stock solutions were prepared in dimethyl sulfoxide (DMSO, Sigma-Aldrich, St. Louis, MO, cat. D2650) at 800-fold the tested concentration and stored at -70 degrees C prior to their use. All drugs and investigational agents were tested over a range starting from a high concentration at or near the clinical Cmax and decreasing in half-log increments. If the clinical Cmax for an agent had not been determined, the highest concentration tested was 10 microM.
2.3 Cell Culture. All cells were maintained in an incubator at 37 degrees C and 5% CO2 with 95% humidity. The PDC lines were cultured according to standard operating procedures established by the NCI PDMR. All PDCs were thawed and cultured in Matrigel-coated flasks prepared with a working solution of 1X Ham's F-12 nutrient mix, without supplementation (Invitrogen, cat. 11765054), 100 U/mL penicillin-streptomycin (Invitrogen, cat. 15140122), and 2.5% Matrigel (Corning Inc., cat. 354248) for the first three passages. The 857933-349-R-J2-PDC line was cultured in 6C/Colon 1B media, which includes advanced DMEM/F-12 (Thermo Fisher Scientific, cat. 12634028), 10 mM HEPES (Thermo Fisher Scientific, cat. 15630080), 1X GlutaMAX supplement (Thermo Fisher Scientific, cat. 35050061), 0.1 mg/mL primocin (InvivoGen, cat. ant-pm-2), 10% defined fetal bovine serum, heat inactivated (HyClone Laboratories Inc., cat. SH30070.03HI), 50% L-WRN conditioned media (ATCC, cat. CRL-3276), 1.25 mM N-Acetyl-L-cysteine (Sigma-Aldrich, cat. A9165), 10 mM nicotinamide (Sigma-Aldrich, cat. N0636), 1X B-27 supplement (Thermo Fisher Scientific, cat. 17504044), 1X N-2 supplement (Thermo Fisher Scientific, cat. 17502048), 10 microM Y-27632 dihydrochloride (Tocris Bioscience, cat. 1254), and 50 ng/mL human EGF recombinant protein (Thermo Fisher Scientific, cat. PHG0311). The 485176-168-R4-J1-PDC line was cultured in Panc media, which includes all 6C/Colon 1B media components plus 100 ng/mL human FGF-10 (Thermo Fisher Scientific, cat. 100-26), 500 nM SB-431542 (Selleckchem, cat. S1067), and gastrin (Tocris, cat. 3006).
[…]

Molecules are shown by their SMILES. pIC50: −log10 of the molar value. Several values for one entry are separate records, joined by “and”; a condition that tells them apart may be missing. Identical values can stand only once.
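Also: spheroids exposed to drugs for 7 days before viability reading.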

For orientation: pIC50 means −log10 of the IC50, conventionally taken in molar units. As a reminder, the viability, T/C is the ratio of treated to control. With `Nc1ccn(C2OC(CO)C(O)C2(F)F)c(=O)n1` (stereo unspecified) + Cc1cnc(CNC(=O)c2c(=O)c3ccc(N4CCCN(C)CC4)nc3n3c2sc2ccccc23)cn1, the negative-log IC50 (pIC50) is, setting by setting: (curve of first compound, second compound 0.0316 µM) 7.10; (curve of first compound, second compound 0.1 µM) 6.51; (curve of first compound, second compound 0.316 µM) 7.17; (curve of first compound, second compound 1 µM) 7.11; (curve of first compound, second compound 3.16 µM) above 7.50; (curve of first compound, second compound 10 µM) above 7.50. Besides, the viability, T/C is 58.3% (second compound 0.0316 µM, first compound 0.0316 µM); 44.5% (second compound 0.0316 µM, first compound 0.1 µM); 49.4% (second compound 0.0316 µM, first compound 0.316 µM); 51% (second compound 0.0316 µM, first compound 1 µM); 47.4% (second compound 0.0316 µM, first compound 3.16 µM); 46.8% (second compound 0.0316 µM, first compound 10 µM). In addition, the viability, T/C (second compound 0.1 µM, first compound 0.0316 µM) was 60.1%; the viability, T/C (second compound 0.1 µM, first compound 0.1 µM) was 51%; the viability, T/C (second compound 0.1 µM, first compound 0.316 µM) was 53.3%; the viability, T/C (second compound 0.1 µM, first compound 1 µM) was 44.7%; the viability, T/C (second compound 0.1 µM, first compound 3.16 µM) is 38.6%; the viability, T/C (second compound 0.1 µM, first compound 10 µM) was 35.3%. In addition, the viability, T/C was 61.2% (second compound 0.316 µM, first compound 0.0316 µM); 43.9% (second compound 0.316 µM, first compound 0.1 µM); 43.9% (second compound 0.316 µM, first compound 0.316 µM); 49.8% (second compound 0.316 µM, first compound 1 µM); 41.6% (second compound 0.316 µM, first compound 3.16 µM); 41.8% (second compound 0.316 µM, first compound 10 µM). Besides, the viability, T/C was 59.6% (second compound 1 µM, first compound 0.0316 µM); 47.6% (second compound 1 µM, first compound 0.1 µM); 42% (second compound 1 µM, first compound 0.316 µM); 47.6% (second compound 1 µM, first compound 1 µM); 52.2% (second compound 1 µM, first compound 3.16 µM); 43% (second compound 1 µM, first compound 10 µM). Moreover, the viability, T/C was 47.9% (second compound 3.16 µM, first compound 0.0316 µM); 41.9% (second compound 3.16 µM, first compound 0.1 µM); 42.2% (second compound 3.16 µM, first compound 0.316 µM); 40.2% (second compound 3.16 µM, first compound 1 µM); 40.9% (second compound 3.16 µM, first compound 3.16 µM); 42.6% (second compound 3.16 µM, first compound 10 µM). Also, the viability, T/C by setting is: (second compound 10 µM, first compound 0.0316 µM) 47%; (second compound 10 µM, first compound 0.1 µM) 35.5%; (second compound 10 µM, first compound 0.316 µM) 38.9%; (second compound 10 µM, first compound 1 µM) 39.6%; (second compound 10 µM, first compound 3.16 µM) 42.7%; (second compound 10 µM, first compound 10 µM) 23.4%.

In the case of `Cn1ncnc1[C@H]1c2n[nH]c(=O)c3cc(F)cc(c23)N[C@@H]1c1ccc(F)cc1`, the viability, T/C by setting is: (compound 0.000999 µM) 92.8% and 91% and 93.5%; (compound 0.00316 µM) 93.2% and 98.2% and 100%; (compound 0.00999 µM) 93.6% and 94% and 101%; (compound 0.0316 µM) 94.5% and 86.7% and 93.1%; (compound 0.0999 µM) 89.3% and 80.8% and 106%; (compound 0.316 µM) 92.8% and 88% and 76.6%. The pIC50 (curve of compound) was below 6.50.

In the case of `CC1COCCN1c1cc(C2(S(C)(=N)=O)CC2)nc(-c2ccnc3[nH]ccc23)n1` (stereo unspecified), the viability, T/C is 95.1% and 98% and 118% (compound 0.0316 µM); 110% and 95.7% and 101% (compound 0.1 µM); 84.8% and 84.3% and 101% (compound 0.316 µM); 83.6% and 72.9% and 77.3% (compound 1 µM); 73.7% and 63.8% and 58% (compound 3.16 µM); 52.1% and 46.3% and 51.5% (compound 10 µM). The pIC50 (curve of compound) was < 5.00 and 5.10.
